Broadly, the melting point is the temperature, or range, at which the solid turns liquid.

For the molecule `CN(C)CCn1ccc2ccc(NS(=O)(=O)c3ccc4ccccc4c3)cc21` [Example 2, N-[1-(2-Dimethylaminoethyl)-1H-indole-6-yl]-naphthalene-2-sulfonamide], the melting point is 140 to 143 °C. The figure for `CN(C)CCn1ccc2ccc(NS(=O)(=O)c3cccc4ccccc34)cc21` [Example 3, N-[1-(2-Dimethylaminoethyl)-1H-indole-6-yl]-naphthalene-1-sulfonamide] is 139 to 142 °C.

`CN(C)CCn1ccc2ccc(NS(=O)(=O)c3cc(Cl)cc(Cl)c3)cc21` [Example 8, N-[1-(2-dimethylaminoethyl)-1H-indole-6-yl]-3,5-dichlorobenzenesulfonamide] gave a melting point of 150 to 159 °C.

Values taken from patent US7462640B2, “Indol-6yl sulfonamide derivatives, their preparation and their use as 5-HT-6 as modulators” (Laboratorios del Dr. Esteve S.A., priority 2003, dated 2008).
